Laboratory results from patent US20230293526A1, “METHOD FOR TREATING CANCER WITH A REVERSE TRANSCRIPTASE INHIBITOR” (PrimeFour Therapeutics, Inc., priority 2020, published 2023).
pIC50: −log10 of the molar value.

Tests used:
Test in all cases: Cell proliferation CellTiterGlo Ex.2
Type in all cases: cell-based
PC3 = conditions: Homo sapiens, PC-3; PC3 (Prostate), 72 h
Method in brief: (§1)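 Cells were seeded, incubated overnight at 37 °C, then dosed at 10, 3, 1, 0.3, 0.1, 0.03, 0.01 and 0.003 μM for 72 h (5% or 10% CO2). CellTiterGlo luminescence gave percent viability relative to 0.10% DMSO (high) and 10 μM staurosporine (low) controls.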

Hs 746T = conditions: Homo sapiens, Hs746T; Hs 746T (Stomach), 72 h
Method in brief: as §1

EFM-192A = EFM-192A (Breast), 72 h
Method in brief: as §1

SK-N-MC = conditions: Homo sapiens; SK-N-MC (Brain), 72 h
Method in brief: as §1

Hep3B2.1-7 = Hep3B2.1-7 (Liver), 72 h
Method in brief: as §1

OCI-LY19 = conditions: Homo sapiens; OCI-LY19 (Blood), 72 h
Method in brief: as §1

SW-1783 = conditions: Homo sapiens, SW1783; SW-1783 (Brain), 72 h
Method in brief: as §1

Ishikawa = conditions: Homo sapiens; Ishikawa (Endometrium), 72 h
Method in brief: as §1

NCI-N87 = conditions: Homo sapiens; NCI-N87 (Stomach), 72 h
Method in brief: as §1

NCI-H441 = conditions: Homo sapiens; NCI-H441 (Lung), 72 h
Method in brief: as §1

PC-9 = conditions: Homo sapiens; PC-9 (Lung), 72 h
Method in brief: as §1

AsPC-1 = conditions: Homo sapiens, ASPC1; AsPC-1 (Pancreas), 72 h
Method in brief: as §1

BT-20 = conditions: Homo sapiens; BT-20 (Breast), 72 h
Method in brief: as §1

U87MG = conditions: Homo sapiens, U-87 MG; U87MG (Brain), 72 h
Method in brief: as §1

NCI-H292 = conditions: Homo sapiens; NCI-H292 (Lung), 72 h
Method in brief: as §1

Hutu 80 = conditions: Homo sapiens, HuTu80; Hutu 80 (Duodenum), 72 h
Method in brief: as §1

HCC 1569 = conditions: Homo sapiens, HCC1569; HCC 1569 (Breast), 72 h
Method in brief: as §1

SK-BR-3 = conditions: Homo sapiens; SK-BR-3 (Breast), 72 h
Method in brief: as §1

KMS-12-BM = conditions: Homo sapiens; KMS-12-BM (Blood), 72 h
Method in brief: as §1

BxPC-3 = conditions: Homo sapiens; BxPC-3 (Pancreas), 72 h
Method in brief: as §1

A431 = conditions: Homo sapiens, A-431; A431 (Skin), 72 h
Method in brief: as §1

ZR-75-1 = conditions: Homo sapiens; ZR-75-1 (Breast), 72 h
Method in brief: as §1

SK-MEL-3 = conditions: Homo sapiens, SK-MEL3; SK-MEL-3 (Skin), 72 h
Method in brief: as §1

T98G = conditions: Homo sapiens; T98G (Brain), 72 h
Method in brief: as §1

OPM-2 = conditions: Homo sapiens; OPM-2 (Blood), 72 h
Method in brief: as §1

SW480 = conditions: Homo sapiens; SW480 (Colon), 72 h
Method in brief: as §1

Calu-6 = conditions: Homo sapiens; Calu-6 (Lung), 72 h
Method in brief: as §1

T-47D = conditions: Homo sapiens, T47D; T-47D (Breast), 72 h
Method in brief: as §1

MEC-1 = conditions: Homo sapiens, MEC1; MEC-1 (Blood), 72 h
Method in brief: as §1

NCI-H1581 = conditions: Homo sapiens; NCI-H1581 (Lung), 72 h
Method in brief: as §1

U118MG = conditions: Homo sapiens, U-118-MG; U118MG (Brain), 72 h
Method in brief: as §1

OCI-AML5 = conditions: Homo sapiens, OCI-AML-5; OCI-AML5 (Blood), 72 h
Method in brief: as §1

U-937 = conditions: Homo sapiens; U-937 (Blood), 72 h
Method in brief: as §1

With `C#C[C@]1(CO)O[C@@H](n2cnc3c(=O)[nH]c(N)nc32)C[C@@H]1O` [compound 13] the pIC50 (PC3) was 5.40, the pIC50 (Hs 746T) was 5.27 and the pIC50 (EFM-192A) was < 5.00. It also gave a pIC50 (SK-N-MC) of 5.50, a pIC50 (Hep3B2.1-7) of 6.09 and a pIC50 (OCI-LY19) of 6.25. The pIC50 (SW-1783) was 5.65, the pIC50 (Ishikawa) was 5.22 and the pIC50 (NCI-N87) was 5.44. The pIC50 (NCI-H441) was 5.44, the pIC50 (PC-9) was < 5.00 and the pIC50 (AsPC-1) was < 5.00. For the same compound, the pIC50 (BT-20) was < 5.00, the pIC50 (U87MG) was 5.19 and the pIC50 (NCI-H292) was 5.07. The pIC50 (Hutu 80) was 5.84, the pIC50 (HCC 1569) was < 5.00 and the pIC50 (SK-BR-3) was < 5.00. For the same compound, the pIC50 (KMS-12-BM) was 6.02, the pIC50 (BxPC-3) was 5.27 and the pIC50 (A431) was 5.30. For the same compound, the pIC50 (ZR-75-1) was < 5.00, the pIC50 (SK-MEL-3) was < 5.00 and the pIC50 (T98G) was < 5.00. For the same compound, the pIC50 (OPM-2) was < 5.00, the pIC50 (SW480) was < 5.00 and the pIC50 (Calu-6) was < 5.00. The pIC50 (T-47D) was < 5.00, the pIC50 (MEC-1) was 5.01 and the pIC50 (NCI-H1581) was 5.53. The pIC50 (U118MG) was 5.24, the pIC50 (OCI-AML5) was 5.86 and the pIC50 (U-937) was 5.95.
